Experimental data published in US20170050957A1, “4-AMINO-6-(HETEROCYCLIC)PICOLINATES AND 6-AMINO-2-(HETEROCYCLIC)PYRIMIDINE-4-CARBOXYLATES AND THEIR USE AS HERBICIDES” (Dow AgroSciences LLC, priority 2013, published 2017).
Read-outs that look alike come from different tables or passages of the source.

Experiments:
[1] = tested on: Key Grass and Sedge Weeds as well as Grass Crops; assay: Post-emergent Test II herbicidal activity (Table 16); format: in vivo; details: post-emergence, 336 h; for pest or weed control at 35 g/ha: 35 g ai/ha; for pest or weed control at 70 g/ha: 70 g ai/ha; for pest or weed control at 140 g/ha: 140 g ai/ha
Outline: (§1)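 Visual injury rating (0 = none, 100% = complete kill) made 14 d after treatment, relative to untreated plants. Compounds in an acetone/DMSO/aqueous crop-oil/surfactant spray, at top rate and serial 1/2×-1/16× rates, were applied at 187 L/ha overhead to first-second true leaf plants raised 7-21 d in greenhouse.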

[2] = tested on: Key Broadleaf Weed and Crop Species; assay: Post-emergent Test II herbicidal activity (Table 15); format: in vivo; details: post-emergence, 336 h, 14 d; for pest or weed control at 35 g/ha: 35 g ai/ha; for pest or weed control at 70 g/ha: 70 g ai/ha; for pest or weed control at 140 g/ha: 140 g ai/ha
Outline: as §1

[3] = Cyperus esculentus, yellow nutsedge (Cyperus esculentus), 14 days after application, read-out: Visual Growth Reduction (%) 14 Days After Application CYPES
[4] = Echinochloa crus-galli, barnyardgrass (Echinochloa crus-galli), 14 days after application, read-out: Visual Growth Reduction (%) 14 Days After Application ECHCG
[5] = Oryza sativa, rice (Oryza sativa), 14 days after application, read-out: Visual Growth Reduction (%) 14 Days After Application ORYSA
[6] = Setaria faberi, giant foxtail (Setaria faberi), 14 days after application, read-out: Visual Growth Reduction (%) 14 Days After Application SETFA
[7] = Triticum aestivum, wheat, spring (Triticum aestivum), 14 days after application, read-out: Visual Growth Reduction (%) 14 Days After Application TRZAS
[8] = Zea mays, maize, corn (Zea mays), 14 days after application, read-out: Visual Growth Reduction (%) 14 Days After Application ZEAMX
[9] = Abutilon theophrasti, velvetleaf (Abutilon theophrasti), read-out: Visual Growth Reduction (%) 14 Days After Application, ABUTH
[10] = Amaranthus retroflexus, redroot pigweed (Amaranthus retroflexus), read-out: Visual Growth Reduction (%) 14 Days After Application, AMARE
[11] = Brassica napus, oilseed rape, canola (Brassica napus), read-out: Visual Growth Reduction (%) 14 Days After Application, BRSNN
[12] = Chenopodium album, lambsquarters (Chenopodium album), read-out: Visual Growth Reduction (%) 14 Days After Application, CHEAL
[13] = Euphorbia heterophylla, wild poinsettia (Euphorbia heterophylla), read-out: Visual Growth Reduction (%) 14 Days After Application, EPHHL
[14] = Helianthus annuus, sunflower (Helianthus annuus), read-out: Visual Growth Reduction (%) 14 Days After Application, HELAN
[15] = Cyperus esculentus, yellow nutsedge (Cyperus esculentus), 14 d, read-out: Visual Growth Reduction (%) 14 Days After Application, CYPES
[16] = Echinochloa crus-galli, barnyardgrass (Echinochloa crus-galli), 14 d, read-out: Visual Growth Reduction (%) 14 Days After Application, ECHCG
[17] = Oryza sativa, rice (Oryza sativa), 14 d, read-out: Visual Growth Reduction (%) 14 Days After Application, ORYSA
[18] = Setaria faberi, giant foxtail (Setaria faberi), 14 d, read-out: Visual Growth Reduction (%) 14 Days After Application, SETFA
[19] = Triticum aestivum, wheat, spring (Triticum aestivum), 14 d, read-out: Visual Growth Reduction (%) 14 Days After Application, TRZAS
[20] = Zea mays, maize, corn (Zea mays), 14 d, read-out: Visual Growth Reduction (%) 14 Days After Application, ZEAMX

Question: With `COC(=O)c1nc(-c2ccc3ccsc3c2)nc(N)c1OC` [Compound 3.20] as the compound, how does the pest or weed control at 35 g/ha [1, 3] read?
Answer: 30 to 44%

Question: What about the pest or weed control at 70 g/ha [1, 3] of the same compound?
Answer: 30 to 44%

Question: And the pest or weed control at 140 g/ha [1, 3]?
Answer: 85 to 94%

Question: And the pest or weed control at 35 g/ha [1, 4]?
Answer: 0 to 29%

Question: And the pest or weed control at 70 g/ha [1, 4]?
Answer: 45 to 59%

Question: What about the pest or weed control at 140 g/ha [1, 4] of the same compound?
Answer: 60 to 74%

Question: And the pest or weed control at 35 g/ha [1, 5]?
Answer: 0 to 29%

Question: And the pest or weed control at 70 g/ha [1, 5]?
Answer: 0 to 29%

Question: What about the pest or weed control at 140 g/ha [1, 5] of the same compound?
Answer: 0 to 29%

Question: What about the pest or weed control at 35 g/ha [1, 6] of the same compound?
Answer: 0 to 29%

Question: What about the pest or weed control at 70 g/ha [1, 6] of the same compound?
Answer: 0 to 29%

Question: What about the pest or weed control at 140 g/ha [1, 6] of the same compound?
Answer: 60 to 74%

Question: And the pest or weed control at 35 g/ha [1, 7]?
Answer: 0 to 29%

Question: What about the pest or weed control at 70 g/ha [1, 7] of the same compound?
Answer: 0 to 29%

Question: What about the pest or weed control at 140 g/ha [1, 7] of the same compound?
Answer: 30 to 44%

Question: And the pest or weed control at 35 g/ha [1, 8]?
Answer: 0 to 29%

Question: What about the pest or weed control at 70 g/ha [1, 8] of the same compound?
Answer: 75 to 84%

Question: And the pest or weed control at 140 g/ha [1, 8]?
Answer: 85 to 94%

Question: What about the pest or weed control at 35 g/ha [2, 9] of the same compound?
Answer: 0 to 29%

Question: And the pest or weed control at 70 g/ha [2, 9]?
Answer: 0 to 29%

Question: What about the pest or weed control at 140 g/ha [2, 9] of the same compound?
Answer: 0 to 29%

Question: What about the pest or weed control at 35 g/ha [2, 10] of the same compound?
Answer: 0 to 29%

Question: What about the pest or weed control at 70 g/ha [2, 10] of the same compound?
Answer: 60 to 74%

Question: What about the pest or weed control at 140 g/ha [2, 10] of the same compound?
Answer: 60 to 74%

Question: And the pest or weed control at 35 g/ha [2, 11]?
Answer: 30 to 44%

Question: And the pest or weed control at 70 g/ha [2, 11]?
Answer: 60 to 74%

Question: And the pest or weed control at 140 g/ha [2, 11]?
Answer: 60 to 74%

Question: And the pest or weed control at 35 g/ha [2, 12]?
Answer: 85 to 94%

Question: What about the pest or weed control at 70 g/ha [2, 12] of the same compound?
Answer: 95 to 100%

Question: And the pest or weed control at 140 g/ha [2, 12]?
Answer: 95 to 100%

Question: And the pest or weed control at 35 g/ha [2, 13]?
Answer: 75 to 84%

Question: And the pest or weed control at 70 g/ha [2, 13]?
Answer: 95 to 100%

Question: And the pest or weed control at 140 g/ha [2, 13]?
Answer: 95 to 100%

Question: What about the pest or weed control at 35 g/ha [2, 14] of the same compound?
Answer: 75 to 84%

Question: And the pest or weed control at 70 g/ha [2, 14]?
Answer: 85 to 94%

Question: And the pest or weed control at 140 g/ha [2, 14]?
Answer: 85 to 94%

Question: What about the melting point of the same compound?
Answer: 143 to 145 °C

Question: For `COC(=O)c1nc(-c2ccc3ccoc3c2F)cc(N)c1Cl` [Compound 2.11], which pest or weed control at 35 g/ha [1, 15] is on record?
Answer: 0 to 29%

Question: And the pest or weed control at 70 g/ha [1, 15]?
Answer: 0 to 29%

Question: What about the pest or weed control at 140 g/ha [1, 15] of the same compound?
Answer: 30 to 44%

Question: What about the pest or weed control at 35 g/ha [1, 16] of the same compound?
Answer: 85 to 94%

Question: What about the pest or weed control at 70 g/ha [1, 16] of the same compound?
Answer: 95 to 100%

Question: And the pest or weed control at 140 g/ha [1, 16]?
Answer: 95 to 100%

Question: What about the pest or weed control at 35 g/ha [1, 17] of the same compound?
Answer: 0 to 29%

Question: And the pest or weed control at 70 g/ha [1, 17]?
Answer: 0 to 29%

Question: And the pest or weed control at 140 g/ha [1, 17]?
Answer: 0 to 29%

Question: What about the pest or weed control at 35 g/ha [1, 18] of the same compound?
Answer: 45 to 59%

Question: And the pest or weed control at 70 g/ha [1, 18]?
Answer: 60 to 74%

Question: What about the pest or weed control at 140 g/ha [1, 18] of the same compound?
Answer: 75 to 84%

Question: What about the pest or weed control at 35 g/ha [1, 19] of the same compound?
Answer: 0 to 29%

Question: And the pest or weed control at 70 g/ha [1, 19]?
Answer: 0 to 29%

Question: And the pest or weed control at 140 g/ha [1, 19]?
Answer: 30 to 44%

Question: What about the pest or weed control at 35 g/ha [1, 20] of the same compound?
Answer: 45 to 59%

Question: What about the pest or weed control at 70 g/ha [1, 20] of the same compound?
Answer: 60 to 74%

Question: And the pest or weed control at 140 g/ha [1, 20]?
Answer: 85 to 94%

Question: What about the pest or weed control at 35 g/ha [2, 9] of the same compound?
Answer: 95 to 100%

Question: What about the pest or weed control at 70 g/ha [2, 9] of the same compound?
Answer: 95 to 100%

Question: What about the pest or weed control at 140 g/ha [2, 9] of the same compound?
Answer: 95 to 100%

Question: What about the pest or weed control at 35 g/ha [2, 10] of the same compound?
Answer: 95 to 100%

Question: What about the pest or weed control at 70 g/ha [2, 10] of the same compound?
Answer: 95 to 100%

Question: What about the pest or weed control at 140 g/ha [2, 10] of the same compound?
Answer: 95 to 100%

Question: What about the pest or weed control at 35 g/ha [2, 11] of the same compound?
Answer: 75 to 84%

Question: And the pest or weed control at 70 g/ha [2, 11]?
Answer: 85 to 94%

Question: And the pest or weed control at 140 g/ha [2, 11]?
Answer: 95 to 100%

Question: What about the pest or weed control at 35 g/ha [2, 12] of the same compound?
Answer: 95 to 100%

Question: And the pest or weed control at 70 g/ha [2, 12]?
Answer: 95 to 100%

Question: And the pest or weed control at 140 g/ha [2, 12]?
Answer: 95 to 100%

Question: What about the pest or weed control at 35 g/ha [2, 13] of the same compound?
Answer: 95 to 100%

Question: What about the pest or weed control at 70 g/ha [2, 13] of the same compound?
Answer: 95 to 100%

Question: And the pest or weed control at 140 g/ha [2, 13]?
Answer: 95 to 100%

Question: What about the pest or weed control at 35 g/ha [2, 14] of the same compound?
Answer: 45 to 59%

Question: What about the pest or weed control at 70 g/ha [2, 14] of the same compound?
Answer: 60 to 74%

Question: And the pest or weed control at 140 g/ha [2, 14]?
Answer: 75 to 84%

Question: And the melting point?
Answer: 148 °C
